# From ChEMBL document CHEMBL4376871, “Synthesis and anti-cancer activity studies of dammarane-type triterpenoid derivatives” (Eur J Med Chem, 2020)
# The source made the active and inactive calls. The calls are words filed in the database; no cut-off is given here.
# Legend:
# [1] = system: MGC-803; test: Antiproliferative activity against human MGC803 cells incubated for 48 hrs and measured after 4 hrs by MTT assay; assay type: functional, cell-based
# [2] = system: SGC-7901; test: Antiproliferative activity against human SGC7901 cells incubated for 48 hrs and measured after 4 hrs by MTT assay; assay type: functional, cell-based
# [3] = system: A549; test: Antiproliferative activity against human A549 cells incubated for 48 hrs and measured after 4 hrs by MTT assay; assay type: functional, cell-based
# [4] = system: MCF7; test: Antiproliferative activity against human MCF7 cells incubated for 48 hrs and measured after 4 hrs by MTT assay; assay type: functional, cell-based
# [5] = system: PC-3; test: Antiproliferative activity against human PC3 cells incubated for 48 hrs and measured after 4 hrs by MTT assay; assay type: functional, cell-based
# [6] = Cytotoxicity against human IOSE-144 cells incubated for 48 hrs and measured after 4 hrs by MTT assay; assay type: cell-based
# [7] = system: MGC-803; test: Potency index, ratio of IC50 for AD-2 to IC50 for test compound for antiproliferative activity against human MGC803 incubated for 48 hrs and measured after 4 hrs by MTT assay; assay type: functional
# [8] = system: A549; test: Cell cycle arrest in human A549 cells assessed as decrease in accumulation of cells at G0/G1 phase at 5 to 10 uM after 24 hrs by propidium iodide staining-based flow cytometric analysis; assay type: functional
# [9] = system: A549; test: Cell cycle arrest in human A549 cells assessed as decrease in accumulation of cells at G2/M phase at 5 to 10 uM after 24 hrs by propidium iodide staining-based flow cytometric analysis; assay type: functional
# [10] = system: A549; test: Cell cycle arrest in human A549 cells assessed as increase in accumulation of cells at S phase at 5 to 10 uM after 24 hrs by propidium iodide staining-based flow cytometric analysis; assay type: functional
# [11] = system: A549; test: Cell cycle arrest in human A549 cells assessed as increase in accumulation of cells at sub G0/G1 phase after 24 hrs by propidium iodide staining-based flow cytometric analysis; assay type: functional
# [12] = system: A549; test: Cell cycle arrest in human A549 cells assessed as increase in expression of p21 at 5 to 20 uM measured after 12 hrs by Western blot analysis; assay type: functional, cell-based
# [13] = system: A549; test: Cell cycle arrest in human A549 cells assessed as increase in expression of p53 at 5 to 20 uM measured after 12 hrs by Western blot analysis; assay type: functional, cell-based
# [14] = system: A549; test: Induction of apoptosis in human A549 cells assessed as cell shrinkage at 10 to 20 uM by microscopic analysis; assay type: functional, cell-based
# [15] = system: A549; test: Induction of apoptosis in human A549 cells assessed as appearance of apoptotic bodies at 10 to 20 uM by microscopic analysis; assay type: functional, cell-based
# [16] = system: A549; test: Induction of apoptosis in human A549 cells assessed as appearance of fragmented apoptotic bodies at 10 to 20 uM measured after 12 hrs by DAPI staining based fluorescence microscopic analysis; assay type: functional, cell-based
# [17] = system: A549; test: Induction of apoptosis in human A549 cells assessed as nuclear condensation at 10 to 20 uM measured after 12 hrs by DAPI staining based fluorescence microscopic analysis; assay type: functional, cell-based
# [18] = system: A549; test: Induction of apoptosis in human A549 cells assessed as nuclear shrinkage at 10 to 20 uM measured after 12 hrs by DAPI staining based fluorescence microscopic analysis; assay type: functional, cell-based
# [19] = system: A549; test: Induction of apoptosis in human A549 cells assessed as early apoptotic cells at 10 uM after 12 hrs by Annexin V-FITC/propidium iodide staining-based flow cytometric analysis (reference value: 0.9%); assay type: functional
# [20] = system: A549; test: Induction of apoptosis in human A549 cells assessed as early apoptotic cells at 15 uM after 12 hrs by Annexin V-FITC/propidium iodide staining-based flow cytometric analysis (reference value: 0.9%); assay type: functional
# [21] = system: A549; test: Induction of ROS generation in human A549 cells assessed as intracellular ROS level at 10 to 15 uM after 30 mins in presence of NAC by DCFH-DA staining-based flow cytometric analysis; assay type: functional, cell-based
# [22] = system: A549; test: Induction of ROS generation in human A549 cells assessed as intracellular ROS level at 10 to 15 uM after 30 mins by DCFH-DA staining-based flow cytometric analysis; assay type: functional, cell-based
# [23] = system: A549; test: Induction of apoptosis in human A549 cells at 10 to 15 uM after 12 hrs by flow cytometric analysis; assay type: functional, cell-based
# [24] = system: A549; test: Induction of apoptosis in human A549 cells at 10 to 15 uM in presence of NAC after 12 hrs by flow cytometric analysis; assay type: functional, cell-based
# [25] = system: A549; test: Suppression of mitochondrial membrane potential in human A549 cells assessed as increase in green fluorescence at 10 uM after 12 hrs by JC-1 staining based flow cytometry (reference value: 0.4%); assay type: functional
# [26] = system: A549; test: Suppression of mitochondrial membrane potential in human A549 cells assessed as increase in green fluorescence at 15 uM after 12 hrs by JC-1 staining based flow cytometry (reference value: 0.4%); assay type: functional
# [27] = system: A549; test: Induction of apoptosis in human A549 cells assessed as decrease in Bcl2 protein expression level at 5 to 20 uM incubated for 12 hrs by Western blot analysis; assay type: functional, cell-based
# [28] = system: A549; test: Induction of apoptosis in human A549 cells assessed as upregulation of Bax protein expression at 5 to 20 uM incubated for 12 hrs by Western blot analysis; assay type: functional, cell-based
# [29] = system: A549; test: Induction of apoptosis in human A549 cells assessed as upregulation of Cyt c protein expression at 5 to 20 uM incubated for 12 hrs by Western blot analysis; assay type: functional, cell-based
# [30] = system: A549; test: Induction of apoptosis in human A549 cells assessed as decrease in PARP protein expression level at 5 to 20 uM incubated for 12 hrs by Western blot analysis; assay type: functional, cell-based
# [31] = system: A549; test: Induction of apoptosis in human A549 cells assessed as decrease in caspase-3 protein expression level at 5 to 20 uM incubated for 12 hrs by Western blot analysis; assay type: functional, cell-based
# [32] = system: A549; test: Induction of apoptosis in human A549 cells assessed as decrease in caspase-9 protein expression level at 5 to 20 uM incubated for 12 hrs by Western blot analysis; assay type: functional, cell-based
# [33] = system: A549; test: Induction of apoptosis in human A549 cells assessed as increase in cleaved PARP protein expression level at 5 to 20 uM incubated for 12 hrs by Western blot analysis; assay type: functional, cell-based
# [34] = system: A549; test: Induction of apoptosis in human A549 cells assessed as increase in cleaved caspase-3 protein expression level at 5 to 20 uM incubated for 12 hrs by Western blot analysis; assay type: functional, cell-based
# [35] = system: A549; test: Induction of apoptosis in human A549 cells assessed as increase in cleaved caspase-9 protein expression level at 5 to 20 uM incubated for 12 hrs by Western blot analysis; assay type: functional, cell-based
# [36] = system: SGC-7901; test: Potency index, ratio of IC50 for AD-2 to IC50 for test compound for antiproliferative activity against human SGC7901 incubated for 48 hrs and measured after 4 hrs by MTT assay; assay type: functional
# [37] = system: A549; test: Potency index, ratio of IC50 for AD-2 to IC50 for test compound for antiproliferative activity against human A549 incubated for 48 hrs and measured after 4 hrs by MTT assay; assay type: functional
# [38] = system: MCF7; test: Potency index, ratio of IC50 for AD-2 to IC50 for test compound for antiproliferative activity against human MCF7 incubated for 48 hrs and measured after 4 hrs by MTT assay; assay type: functional
# [39] = system: PC-3; test: Potency index, ratio of IC50 for AD-2 to IC50 for test compound for antiproliferative activity against human PC3 incubated for 48 hrs and measured after 4 hrs by MTT assay; assay type: functional
# [40] = system: A549; test: Induction of apoptosis in human A549 cells measured after 12 hrs by Annexin V-FITC/propidium iodide staining-based flow cytometric analysis; assay type: functional, cell-based
smiles,measurement,setting,value
CC(C)(O)CCC[C@@](C)(O)[C@H]1CC[C@]2(C)[C@@H]1[C@H](O)C[C@@H]1[C@@]3(C)CC[C@H](OC(=O)C4CCNCC4)C(C)(C)[C@@H]3CC[C@]12C,IC50,[1],6.51 µM
same,IC50,[2],7.11 µM
same,IC50,[3],1.07 µM
same,IC50,[4],1.27 µM
same,IC50,[5],5.44 µM
same,IC50,[6],> 100 µM
same,Ratio IC50,[7],5 - 28
same,Activity,[8],Active
same,Activity,[9],Active
same,Activity,[10],Active
same,Activity,[11],Active
same,Activity,[12],Active
same,Activity,[13],Active
same,Activity,[14],Active
same,Activity,[15],Active
same,Activity,[16],Active
same,Activity,[17],Active
same,Activity,[18],Active
same,Activity,[19],27%
same,Activity,[20],50%
same,Activity,[21],inactive
same,Activity,[22],Active
same,Activity,[23],Active
same,Activity,[24],inactive
same,Activity,[25],7.5%
same,Activity,[26],27.6%
same,Activity,[27],Active
same,Activity,[28],Active
same,Activity,[29],Active
same,Activity,[30],Active
same,Activity,[31],Active
same,Activity,[32],Active
same,Activity,[33],Active
same,Activity,[34],Active
same,Activity,[35],Active
same,Ratio IC50,[36],5 - 28
same,Ratio IC50,[37],5 - 28
same,Ratio IC50,[38],5 - 28
same,Ratio IC50,[39],5 - 28
same,Activity,[40],Dose-dependent effect
